Patent publication US20260042764A1, “COMPOSITIONS AND METHODS FOR INHIBITION OF KRAS” (TheRas, Inc., priority 2022, published 2026)
pIC50: −log10 of the molar value.

How the values were obtained:
SW620 cells (KRAS G12V) = test: Cell-based pERK HTRF assay in SW620 cell (Biological Example 4)
Method in brief: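 In SW620 cells grown in RPMI with 10% FBS, a 4 h compound treatment (0.25% DMSO, 9-point curve from 1 μM) preceded lysis. Phospho-ERK levels were then read by time-resolved FRET at 615 nm emission.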

[1] = biological target: T1, Avi-KRAS G12D (1-169) GppNHp/RAF1 RBD-3xFLAG (52-151) (Homo sapiens, UniProt P01116, G12D); test: Raf1-KRAS G12D-GppNHP disruption HTRF assay (Biological Example 1); format: binding
T1 construct: Avi-KRAS G12D (1-169)
T1 sequence (P01116 1-169 isoform P01116-2 G12D): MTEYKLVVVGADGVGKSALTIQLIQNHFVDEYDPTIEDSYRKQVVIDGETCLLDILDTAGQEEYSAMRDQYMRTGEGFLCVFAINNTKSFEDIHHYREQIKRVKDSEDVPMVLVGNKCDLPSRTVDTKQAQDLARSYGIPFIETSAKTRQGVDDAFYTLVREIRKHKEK
Method in brief: (§1)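 HTRF PPI disruption; buffer 50 mM Tris pH 7.5, 100 mM NaCl, 5 mM MgCl2, 0.1% BSA, 0.01% Tween, 10% DMSO. Protein mix 1 h RT shaking, reagent mix 1 h RT shaking. Data as % activity vs DMSO (100%).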

[2] = biological target: T2, Avi-KRAS G12R (1-169) GppNHp/RAF1 RBD-3xFLAG (52-151) (Homo sapiens, UniProt P01116, G12R); test: Raf1-KRAS G12R-GppNHP disruption HTRF assay (Biological Example 1); format: binding
T2 construct: Avi-KRAS G12R (1-169)
T2 sequence (P01116 1-169 isoform P01116-2 G12R): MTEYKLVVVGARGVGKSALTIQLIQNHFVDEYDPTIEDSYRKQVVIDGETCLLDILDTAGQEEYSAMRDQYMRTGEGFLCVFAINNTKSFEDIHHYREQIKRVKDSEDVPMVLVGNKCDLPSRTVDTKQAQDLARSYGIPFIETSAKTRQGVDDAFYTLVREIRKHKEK
Method in brief: as §1

[3] = biological target: T3, Avi-KRAS WT (1-169) GppNHp/RAF1 RBD-3xFLAG (52-151) (Homo sapiens, UniProt P01116); test: Raf1-KRAS WT-GppNHP disruption HTRF assay (Biological Example 1); format: binding
T3 construct: Avi-KRAS WT (1-169)
T3 sequence (P01116 1-169 isoform P01116-2): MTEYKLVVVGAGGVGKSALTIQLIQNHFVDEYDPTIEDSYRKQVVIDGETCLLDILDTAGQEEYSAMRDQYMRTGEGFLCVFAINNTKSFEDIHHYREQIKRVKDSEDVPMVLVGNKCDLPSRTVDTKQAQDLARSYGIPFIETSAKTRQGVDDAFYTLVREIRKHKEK
Method in brief: as §1

[4] = biological target: T4, Avi-KRAS G12V (1-169) GppNHp/RAF1 RBD-3xFLAG (52-151) (Homo sapiens, UniProt P01116, G12V); test: Raf1-KRAS G12V-GppNHP disruption HTRF assay (Biological Example 1); format: binding
T4 construct: Avi-KRAS G12V (1-169)
T4 sequence (P01116 1-169 isoform P01116-2 G12V): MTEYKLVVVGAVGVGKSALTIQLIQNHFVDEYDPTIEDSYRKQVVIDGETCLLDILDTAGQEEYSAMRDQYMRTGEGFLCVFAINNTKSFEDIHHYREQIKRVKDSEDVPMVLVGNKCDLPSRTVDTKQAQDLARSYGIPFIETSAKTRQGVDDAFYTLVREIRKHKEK
Method in brief: as §1

[5] = biological target: T5, Avi-KRAS G12V (2-169) GTP/RAF1 RBD-3xFLAG (51-131) (Homo sapiens, UniProt P01116, G12V); test: Raf1-KRAS G12V-GTP disruption HTRF assay (Biological Example 3); format: binding; details: KRAS G12V, GTP-loaded
T5 construct: Avi-KRAS G12V (2-169)
T5 sequence (P01116 2-169 isoform P01116-2 G12V): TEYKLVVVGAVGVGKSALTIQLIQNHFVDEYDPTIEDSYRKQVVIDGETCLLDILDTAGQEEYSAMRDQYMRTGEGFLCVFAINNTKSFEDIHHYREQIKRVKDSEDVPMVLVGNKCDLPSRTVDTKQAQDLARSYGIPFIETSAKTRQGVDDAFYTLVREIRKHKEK
Method in brief: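 50 nM Avi-KRAS (2-169) GTP/RAF1 RBD complex; 75 nM RBD-Avi; pH 7.5 Tris buffer, 10% DMSO; cpd 30 μM top, 3x, 10 pts; 1 h RT, 700 rpm; HTRF, % of DMSO.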

[6] = Homo sapiens, SW-620, SW620 (KRAS G12V) cells, pERK HTRF
[7] = Homo sapiens, SW-620, SW620 (KRAS G12V) cells
[8] = Homo sapiens, SW-620, SW620 (KRAS G12V) cells, pERK HTRF, class symbols
[9] = KRAS G12D, GppNHp-loaded, class symbols
[10] = KRAS G12R, GppNHp-loaded, class symbols
[11] = KRAS WT, GppNHp-loaded, class symbols
[12] = KRAS G12V, GppNHp-loaded, class symbols
[13] = KRAS G12D, GppNHp-loaded, Table 11
[14] = KRAS G12R, GppNHp-loaded, Table 11
[15] = KRAS WT, GppNHp-loaded, Table 11
[16] = KRAS G12V, GppNHp-loaded, Table 11

SMILES	pIC50 (SW620 cells (KRAS G12V); [6])	pIC50 ([1]; KRAS G12D-GppNHp/RAF1 RBD HTRF)	pIC50 ([2]; KRAS G12R-GppNHp/RAF1 RBD HTRF)	pIC50 ([3]; KRAS WT-GppNHp/RAF1 RBD HTRF)	pIC50 ([4]; KRAS G12V-GppNHp/RAF1 RBD HTRF)	pIC50 (SW620 cells (KRAS G12V); [7])	pIC50 (SW620 cells (KRAS G12V); [8])	pIC50 [5]	pIC50 [1, 9]	pIC50 [2, 10]	pIC50 [3, 11]	pIC50 [4, 12]	other results
N#Cc1cnn2c1CN(c1nc(OC[C@@]34CCCN3C[C@H](F)C4)nc3c(F)c(-c4ccc(F)c5sc(N)c(C#N)c45)c(C(F)(F)F)cc13)CC2 [Compound 392]	> 7.00	6.00 to 7.00	6.00 to 7.00	6.00 to 7.00	6.00 to 7.00	–	–	–	–	–	–	–	–
CCN(c1nc(OC[C@@]23CCCN2C[C@H](F)C3)nc2c(F)c(-c3ccc(F)c4sc(N)c(C#N)c34)c(C(F)(F)F)cc12)[C@H]1CCN(C(=O)[C@H]2CCO2)C1 (atropisomer, axis not shown) [Compound 577]	–	–	–	–	–	> 7.00	> 7.00	≥ 7.00	> 7.00	> 7.00	> 7.00	> 7.00	–
N#Cc1c(N)sc2c(F)ccc(-c3c(C(F)(F)F)cc4c(N5C[C@H]6C[C@@H]5CO6)nc(OC[C@@]56CCCN5C[C@H](F)C6)nc4c3F)c12 (single isomer, unassigned) [Compound 287]	> 7.00	6.00 to 7.00	6.00 to 7.00	6.00 to 7.00	6.00 to 7.00	> 7.00	–	6.00 to 7.00	–	–	–	–	–
CCN(c1nc(OC[C@@]23CCCN2C[C@H](F)C3)nc2c(F)c(-c3ccc(F)c4sc(N)c(C#N)c34)c(C(F)(F)F)cc12)[C@H]1CC(=O)N2CCC[C@@H]12 (atropisomer, axis not shown; (aS)) [Compound 697, 2-amino-4-((S)-4-(ethyl((1S,7aS)-3-oxohexahydro-1H-pyrrolizin-1-yl)amino)-8-fluoro-2-(((2R,7aS)-2-fluorotetrahydro-1H-pyrrolizin-7a(5H)-yl)methoxy)-6-(trifluoromethyl)quinazolin-7-yl)-7-fluorobenzo[b]thiophene-3-carbonitrile]	–	–	–	–	–	> 7.00	> 7.00	≥ 7.00	> 7.00	> 7.00	> 7.00	> 7.00	–
CCN(c1nc(OC[C@@]23CCCN2C[C@H](F)C3)nc2c(F)c(-c3ccc(F)c4sc(N)c(C#N)c34)c(C(F)(F)F)cc12)[C@H]1C[C@H](C)N(C(=O)N2CC(OC)C2)C1 (atropisomer, axis not shown) [Compound 764]	–	–	–	–	–	> 7.00	> 7.00	≥ 7.00	> 7.00	> 7.00	> 7.00	> 7.00	–
CCC(=O)N1C[C@@H](N(CC)c2nc(OC[C@@]34CCCN3C[C@H](F)C4)nc3c(F)c(-c4ccc(F)c5sc(N)c(C#N)c45)c(C(F)(F)F)cc23)C[C@H]1C [Compound 442]	> 7.00	6.00 to 7.00	6.00 to 7.00	6.00 to 7.00	6.00 to 7.00	–	–	–	–	–	–	–	–
Cc1c(C(=O)N2CCOCC2)nn2c1CN(c1nc(OCC34CCCN3CC(F)C4)nc3c(F)c(-c4ccc(F)c5sc(N)c(C#N)c45)c(C(F)(F)F)cc13)CC2 (stereo not shown) [Compound 741]	–	–	–	–	–	> 7.00	> 7.00	6.00 to 7.00	> 7.00	6.00 to 7.00	6.00 to 7.00	6.00 to 7.00	–
N#Cc1c(N)sc2c(F)ccc(-c3c(C(F)(F)F)cc4c(N(C5CC5)[C@H]5CCS(=O)(=O)C5)nc(OC[C@@]56CCCN5C[C@H](F)C6)nc4c3F)c12 [Compound 702]	–	–	–	–	–	6.00 to 7.00	6.00 to 7.00	< 5.00	5.00 to 6.00	5.00 to 6.00	5.00 to 6.00	5.00 to 6.00	–
C[C@@H]1[C@H](N(C)c2nc(OC[C@@]34CCCN3C[C@H](F)C4)nc3c(F)c(-c4ccc(F)c5sc(N)c(C#N)c45)c(C(F)(F)F)cc23)CC(=O)N1C [Compound 440]	> 7.00	6.00 to 7.00	6.00 to 7.00	6.00 to 7.00	6.00 to 7.00	–	–	–	–	–	–	–	–
CCN(c1nc(OC[C@]23CCCN2C[C@H](F)C3)nc2c(F)c(-c3ccc(F)c4sc(N)c(C#N)c34)c(C(F)(F)F)cc12)[C@H]1CCN(C(=O)C(C)C)C1 [Compound 705]	–	–	–	–	–	> 7.00	> 7.00	6.00 to 7.00	> 7.00	> 7.00	> 7.00	6.00 to 7.00	–
CCN(c1nc(OC[C@@]23CCCN2C[C@H](F)C3)nc2c(F)c(-c3ccc(F)c4sc(N)c(C#N)c34)c(C(F)(F)F)cc12)[C@H]1C[C@H](C)N(C(=O)[C@@H]2CC2(F)F)C1 (atropisomer, axis not shown) [Compound 751]	–	–	–	–	–	–	> 7.00	–	> 7.00	> 7.00	6.00 to 7.00	> 7.00	–
C[C@@H]1[C@H](N(C)c2nc(OC[C@@]34CCCN3C[C@H](F)C4)nc3c(F)c(-c4ccc(F)c5sc(N)c(C#N)c45)c(C(F)(F)F)cc23)CCN1C(=O)C1CC1 [Compound 258]	> 7.00	–	–	–	–	–	–	–	–	–	–	–	pIC50 [1, 13]: > 7.00; pIC50 [2, 14]: > 7.00; pIC50 [3, 15]: > 7.00; pIC50 [4, 16]: 6.00 to 7.00
CC(=O)N1CC[C@@H](N(C)c2nc(OC[C@@]34CCCN3C[C@H](F)C4)nc3c(F)c(-c4ccc(F)c5sc(N)c(C#N)c45)c(Cl)cc23)[C@H]1C [Compound 398]	> 7.00	6.00 to 7.00	6.00 to 7.00	6.00 to 7.00	6.00 to 7.00	–	–	–	–	–	–	–	–
CCN(c1nc(OC[C@@]23CCCN2C[C@H](F)C3)nc2c(F)c(-c3ccc(F)c4sc(N)c(C#N)c34)c(Cl)cc12)[C@@H]1CCN(C(C)=O)[C@@H]1C [Compound 323]	> 7.00	6.00 to 7.00	6.00 to 7.00	6.00 to 7.00	6.00 to 7.00	–	–	–	–	–	–	–	–
N#Cc1c(N)sc2c(F)ccc(-c3c(C(F)(F)F)cc4c(N5CCC[C@@H](O)C5)nc(OC[C@@]56CCCN5C[C@H](F)C6)nc4c3F)c12 [Compound 234]	> 7.00	–	–	–	–	–	–	–	–	–	–	–	pIC50 [1, 13]: 6.00 to 7.00; pIC50 [2, 14]: 6.00 to 7.00; pIC50 [3, 15]: 6.00 to 7.00; pIC50 [4, 16]: 6.00 to 7.00
CCN(c1nc(OC[C@@]23CCCN2C[C@H](F)C3)nc2c(F)c(-c3ccc(F)c4sc(N)c(C#N)c34)c(C(F)(F)F)cc12)[C@H]1C[C@H](C)N(C(C)=O)C1 [Compound 463]	> 7.00	> 7.00	> 7.00	> 7.00	> 7.00	–	–	–	–	–	–	–	–
CN(Cc1cccnc1N)c1nc(OC[C@@]23CCCN2C[C@H](F)C3)nc2c(F)c(-c3ccc(F)c4sc(N)c(C#N)c34)c(C(F)(F)F)cc12 [Compound 390]	> 7.00	6.00 to 7.00	6.00 to 7.00	6.00 to 7.00	> 7.00	–	–	–	–	–	–	–	–
CCC(=O)N1CC[C@@H](N(C)c2nc(OC[C@@]34CCCN3C[C@H](F)C4)nc3c(F)c(-c4ccc(F)c5sc(N)c(C#N)c45)c(C(F)(F)F)cc23)[C@H]1C [Compound 260]	> 7.00	–	–	–	–	–	–	–	–	–	–	–	pIC50 [1, 13]: > 7.00; pIC50 [2, 14]: > 7.00; pIC50 [3, 15]: > 7.00; pIC50 [4, 16]: 6.00 to 7.00
N#Cc1c(N)sc2c(F)ccc(-c3c(C(F)(F)F)cc4c(N5CC6CC5CO6)nc(OC[C@@]56CCCN5C[C@H](F)C6)nc4c3F)c12 (stereo partly shown) [Compound 147]	> 7.00	–	–	–	–	–	–	–	–	–	–	–	pIC50 [1, 13]: 6.00 to 7.00; pIC50 [2, 14]: 6.00 to 7.00; pIC50 [3, 15]: 6.00 to 7.00; pIC50 [4, 16]: 6.00 to 7.00
CCN(c1nc(OC[C@@]23CCCN2C[C@H](F)C3)nc2c(F)c(-c3ccc(F)c4sc(N)c(C#N)c34)c(C(F)(F)F)cc12)[C@H]1CCN(C(=O)c2ncco2)C1 (atropisomer, axis not shown) [Compound 584]	–	–	–	–	–	–	> 7.00	–	> 7.00	> 7.00	> 7.00	> 7.00	–
CCN(c1nc(OC[C@@]23CCCN2C[C@H](F)C3)nc2c(F)c(-c3ccc(F)c4sc(N)c(C#N)c34)c(Cl)cc12)[C@@H]1CCN(C(=O)C2CC2)[C@@H]1C [Compound 337]	> 7.00	6.00 to 7.00	6.00 to 7.00	6.00 to 7.00	6.00 to 7.00	–	–	–	–	–	–	–	–
CCN(c1nc(OCC23CCCN2CC(F)C3)nc2c(F)c(-c3ccc(F)c4sc(N)c(C#N)c34)c(C(F)(F)F)cc12)C1CC(C)N(C(=O)N2CC(F)C2)C1 (stereo not shown) [Compound 759]	–	–	–	–	–	–	–	–	> 7.00	> 7.00	> 7.00	> 7.00	pIC50 (SW620 cells (KRAS G12V); SW620 (KRAS G12V) cells, pERK HTRF, class symbols): > 7.00
